According to patent US20190046467A1, “COMPOSITIONS AND METHODS FOR INHIBITING BIOFILM-FORMING BACTERIA” (priority 2015, published 2019):

Tests used:
[1] = tested on: 509.5=PAO509 expressing triABC mutant biofilms; assay: MBEC biofilm killing assay (BacTiter-Glo), mutant 509.5; type: cell-based, Pseudomonas aeruginosa; settings: triclosan 100 μM alone or with tobramycin 250 μg/mL; 6 hours treatment
Method: (§1) The MBEC™ Assay is a high throughput screening assay that allows testing of the efficacy of antimicrobials against biofilms. The MBEC™ Assay's Biofilm Inoculator (referred above as “the lid”) consists of a plastic lid with 96 pegs and a corresponding base with 96 individual wells. Biofilms are grown on the pegs under batch conditions (no flow of nutrients into or out of an individual well) with gentle mixing. The established biofilm is then transferred to a new 96 well plate for antimicrobial efficacy testing. The assay design allows for the evaluation of different of microorganisms, simultaneous testing of multiple biocides at multiple concentrations with replicate samples, making it an efficient screening tool. (Innovotech website http://www.innovotech.ca/products_mbec.php)) […]
(§2) Two milliliter overnight cultures of Pseudomonas aeruginosa mutants were grown in MHII medium shaking at 220 rpm at 37° C. […] Cell culture was diluted to a 0.001 absorbance at 600 nm in 10% Mueller-Hinton II medium (MHII) and used to inoculate the bottom of MBEC™ assay plates (Innovotech, Edmonton, Canada). […] Following a 5 minute rinse in MHII, lids were exposed to BacTiter-Glo™ (Promega) and luminescence read in a microtiter plate reader (EnVision® Multilabel Plate Reader, Perkin Elmer, Waltham, USA). […]

[2] = tested on: 509=PAO1_Δ(mexAB-oprM)_Δ(mexCD-oprJ)_Δ(mexEF-oprN)_Δ(mexJK)_Δ(mexXY) mutant biofilms; assay: MBEC biofilm killing assay (BacTiter-Glo), efflux pump deletion mutant 509; type: cell-based, Pseudomonas aeruginosa; settings: triclosan 100 μM alone or with tobramycin 250 μg/mL; 6 hours treatment
Method: as §1, §2

[3] = tested on: Pseudomonas aeruginosa PAO1 fabI mutant biofilms; assay: MBEC biofilm killing assay (BacTiter-Glo), fabI mutants; type: cell-based; settings: triclosan 100 μM alone; 6 hours treatment
Method: as §1
Two milliliter overnight cultures of Pseudomonas aeruginosa fabI mutants were grown in MHII medium shaking at 220 rpm at 37° C. […] Cell culture was diluted to a 0.001 absorbance at 600 nm in 10% Mueller-Hinton II medium (MHII) and used to inoculate the bottom of MBEC™ assay plates (Innovotech, Edmonton, Canada). […] Following a 5 minute rinse in MHII, lids were exposed to BacTiter-Glo™ (Promega) and luminescence read in a microtiter plate reader (EnVision® Multilabel Plate Reader, Perkin Elmer, Waltham, USA). […]

## Oc1cc(Cl)ccc1Oc1ccc(Cl)cc1Cl [triclosan, Triclosan]
[1]
  percentage of 509.5 mutant biofilms killed: around 50%
[2]
  susceptibility of 509 mutant biofilms: susceptible
[3]
  susceptibility of fabI mutant biofilms: triclosan resistance
